The values below come from PubChem BioAssay (NCI).

Test systems include HS 578T breast; 786-0 renal; K-562 leukemia; ACHN renal; SK-MEL-5 melanoma; EKVX NSCLC; HCC-2998 colon; SK-MEL-2 melanoma; RPMI-8226 leukemia; RXF 393 renal.
What all share (assay): NCI anticancer screen, dose series, 48 h

Values joined by “and” are separate entries in the source; they are usually repeats but may differ in a detail not shown here. Equal entries are not always repeated.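 Grown in 96-well plates, cells were treated for 48 hours with each compound at five concentrations. Insufficient inhibition: endpoint recorded as highest concentration tested. GI50 = concentration required for 50% inhibition of growth. TGI marks complete inhibition of growth.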

Regarding `CC1=C/C(O)CC(=O)Cc2nc(co2)C(=O)N2CCC=C2C(=O)OC(C(C)C)C(C)/C=C\C(=O)NC/C=C\1` (stereo not given), the GI50 was greater than 75.8 µM in the experiment with HS 578T breast; 26.2 µM with 786-0 renal; greater than 59.5 µM with K-562 leukemia; 31.8 µM with ACHN renal; 10.3 µM in the experiment on SK-MEL-5 melanoma; 36.4 µM in the experiment with EKVX NSCLC. Further, the GI50 with HCC-2998 colon is 16.2 µM; with SK-MEL-2 melanoma, 10.1 µM; in the experiment on RPMI-8226 leukemia, 7.98 µM; in the experiment with RXF 393 renal, 27.8 µM. For the same compound, the TGI in the experiment on HS 578T breast was > 100 µM and 59.4 µM; in the experiment on 786-0 renal, 90.1 µM and 60.8 µM; in the experiment with K-562 leukemia, greater than 100 µM; with ACHN renal, > 100 µM and 29.7 µM; in the experiment with SK-MEL-5 melanoma, 29.3 µM and > 100 µM; in the experiment with EKVX NSCLC, > 100 µM and 53.3 µM. For the same compound, the TGI was 31.6 µM and 34.5 µM in the experiment with HCC-2998 colon; greater than 100 µM with SK-MEL-2 melanoma; > 100 µM and 43.4 µM with RPMI-8226 leukemia; greater than 100 µM in the experiment on RXF 393 renal.
On to `CCCC(CCC)Oc1ccc(CCCC2=C(O)c3ccccc3C(=O)C2=O)cc1`, for which the GI50 in the experiment with HS 578T breast is 11.7 µM; with 786-0 renal, 4.11 µM; in the experiment on K-562 leukemia, 3.31 µM; with ACHN renal, 6.69 µM; with SK-MEL-5 melanoma, 3.14 µM; in the experiment with EKVX NSCLC it was 5.61 µM. For the same compound, the GI50 is 2.8 µM in the experiment on HCC-2998 colon, 6.85 µM in the experiment with SK-MEL-2 melanoma, 2.9 µM in the experiment on RPMI-8226 leukemia and 5.75 µM with RXF 393 renal. Besides, the TGI with HS 578T breast was found to be 37.4 µM; with 786-0 renal, 16.8 µM; with K-562 leukemia, 10.7 µM; in the experiment with ACHN renal, 19 µM; in the experiment with SK-MEL-5 melanoma it was 13.6 µM; in the experiment on EKVX NSCLC it was 18 µM. For the same compound, the TGI was determined as 10.1 µM with HCC-2998 colon, 28 µM in the experiment on SK-MEL-2 melanoma, 7.49 µM in the experiment with RPMI-8226 leukemia and 21.5 µM in the experiment with RXF 393 renal.
As for `CN(N=O)C(=O)Nc1ccc(C(=O)O)cc1`, the TGI in the experiment on HS 578T breast, in the experiment with 786-0 renal, in the experiment on K-562 leukemia, in the experiment with ACHN renal, with SK-MEL-5 melanoma and with EKVX NSCLC was greater than 100 µM each time. The TGI in the experiment on HCC-2998 colon, in the experiment with SK-MEL-2 melanoma, in the experiment on RPMI-8226 leukemia and with RXF 393 renal was greater than 100 µM each time.
For `C=C1[C@@H](O)C[C@H]2C(C)(C)C[C@H](Cl)C[C@]2(C)[C@H]1C[C@H](O)[C@H]1CC(=O)NC1=O`, the GI50 is 0.0192 µM in the experiment with HS 578T breast; 0.0149 µM in the experiment with 786-0 renal; 0.0121 µM with K-562 leukemia; 0.0166 µM in the experiment on ACHN renal; less than 0.0134 µM in the experiment with SK-MEL-5 melanoma; 0.0157 µM with EKVX NSCLC. For the same compound, the GI50 was 0.0173 µM in the experiment on HCC-2998 colon, less than 0.0111 µM with SK-MEL-2 melanoma, 0.0207 µM in the experiment on RPMI-8226 leukemia and 0.0132 µM with RXF 393 renal. In addition, the TGI was found to be 0.274 µM in the experiment on HS 578T breast; 0.136 µM in the experiment with 786-0 renal; 0.176 µM in the experiment with ACHN renal; 0.0363 µM in the experiment with SK-MEL-5 melanoma; 0.128 µM in the experiment on EKVX NSCLC; 0.117 µM in the experiment on HCC-2998 colon. Further, the TGI in the experiment with SK-MEL-2 melanoma stood at 0.0469 µM; in the experiment with RPMI-8226 leukemia it was 0.0805 µM; with RXF 393 renal it was 0.0722 µM.
Take `c1ccc2c(-c3cnn4cc(-c5ccc(N6CCNCC6)cc5)cnc34)ccnc2c1`: the GI50 with HS 578T breast is 1.25 µM; with 786-0 renal, 0.527 µM; in the experiment on K-562 leukemia, 0.226 µM; with ACHN renal, 1.09 µM; with SK-MEL-5 melanoma, 1.26 µM; in the experiment on EKVX NSCLC, 1.89 µM. The GI50 in the experiment on HCC-2998 colon is 1.36 µM; in the experiment on SK-MEL-2 melanoma, 1.57 µM; in the experiment with RPMI-8226 leukemia, 0.327 µM; in the experiment on RXF 393 renal, 1.04 µM. Besides, the TGI with HS 578T breast came out at 2.93 µM; in the experiment with 786-0 renal it was 1.03 µM; in the experiment with K-562 leukemia, 0.696 µM; with ACHN renal, 2.29 µM; in the experiment with SK-MEL-5 melanoma it was 2.52 µM; in the experiment with EKVX NSCLC it was 3.76 µM. Besides, the TGI with HCC-2998 colon amounted to 2.74 µM; in the experiment on SK-MEL-2 melanoma, 2.98 µM; in the experiment with RPMI-8226 leukemia it was 0.931 µM; with RXF 393 renal, 2.45 µM.
For the compound `Cc1[nH]c(=O)nc(N/N=C/c2ccc(Cl)cc2)c1C(=O)Nc1ccc(Cl)cc1`, the TGI in the experiment with HS 578T breast was greater than 100 µM; in the experiment with 786-0 renal, 47.6 µM; in the experiment on K-562 leukemia it was greater than 85.1 µM; with ACHN renal it was greater than 89.2 µM; with SK-MEL-5 melanoma, 48.4 µM; in the experiment on EKVX NSCLC it was greater than 100 µM. The TGI in the experiment on HCC-2998 colon is greater than 100 µM; in the experiment with SK-MEL-2 melanoma it was greater than 100 µM; in the experiment on RPMI-8226 leukemia, greater than 80.2 µM; in the experiment with RXF 393 renal, 32.9 µM.
With `O=C(NCCNC(=O)c1ccc(F)cc1)Nc1ccc(-n2cc(-c3ccncc3)c(-c3ccc(Cl)c(O)c3)n2)cc1`, the GI50 with HS 578T breast is 0.462 µM; in the experiment with 786-0 renal, 0.997 µM; with ACHN renal it was 2.32 µM; in the experiment with SK-MEL-5 melanoma, 0.28 µM; in the experiment with EKVX NSCLC it was 1.36 µM; with HCC-2998 colon, 0.597 µM. For the same compound, the GI50 in the experiment on SK-MEL-2 melanoma was 0.738 µM; with RXF 393 renal, 0.288 µM. In addition, the TGI in the experiment with HS 578T breast was greater than 100 µM; with 786-0 renal it was 5.77 µM; with ACHN renal it was 9.64 µM; in the experiment with SK-MEL-5 melanoma, 1.12 µM; in the experiment on EKVX NSCLC, greater than 100 µM; in the experiment on HCC-2998 colon, 2.85 µM. Further, the results for the TGI in the experiment on SK-MEL-2 melanoma and with RXF 393 renal were 4 µM and 3.69 µM, respectively.
For the compound `Cc1ccc(S(=O)(=O)N[C@@H](Cc2ccccc2)C(=O)CCl)cc1`, the GI50 was 21.2 µM with HS 578T breast; 10.6 µM in the experiment on 786-0 renal; 4.26 µM in the experiment on K-562 leukemia; 13 µM with ACHN renal; 1.03 µM in the experiment with HCC-2998 colon; 15 µM in the experiment with SK-MEL-2 melanoma. In addition, the GI50 in the experiment with RXF 393 renal was 14.6 µM. In addition, the TGI is 64.1 µM with HS 578T breast; 27 µM in the experiment with 786-0 renal; 31.4 µM in the experiment on K-562 leukemia; 28.1 µM in the experiment with ACHN renal; 28.3 µM in the experiment with SK-MEL-5 melanoma; 36 µM in the experiment on EKVX NSCLC. Further, the values for the TGI in the experiment on HCC-2998 colon, in the experiment with SK-MEL-2 melanoma and with RXF 393 renal were 21.8 µM, 35.8 µM and 37.2 µM, respectively.
For the compound `O=c1oc2c(cc1-c1ccccc1)C(O)Oc1ccccc1-2` (stereo not given), the GI50 was 13.4 µM in the experiment with HS 578T breast; 11.6 µM in the experiment with 786-0 renal; 4.27 µM in the experiment on K-562 leukemia; 20.4 µM in the experiment on ACHN renal; 3.8 µM in the experiment with SK-MEL-5 melanoma; 28.1 µM in the experiment with EKVX NSCLC. Also, the GI50 in the experiment with HCC-2998 colon is 3.55 µM; in the experiment with SK-MEL-2 melanoma, 5.81 µM; with RXF 393 renal, 2.42 µM. The TGI in the experiment with HS 578T breast was greater than 100 µM; in the experiment on 786-0 renal, greater than 100 µM; in the experiment with K-562 leukemia, greater than 100 µM; in the experiment on ACHN renal, greater than 100 µM; with SK-MEL-5 melanoma, 16.5 µM; in the experiment with EKVX NSCLC, greater than 100 µM. The TGI was found to be 19.3 µM with HCC-2998 colon, 30.6 µM in the experiment with SK-MEL-2 melanoma and 6.41 µM in the experiment on RXF 393 renal.
With `O=C(O)c1cc2cc(O)ccc2[nH]1`, the GI50 with HS 578T breast, in the experiment with 786-0 renal, in the experiment on ACHN renal, in the experiment with SK-MEL-5 melanoma, in the experiment with EKVX NSCLC and with HCC-2998 colon was greater than 100 µM throughout. The GI50 in the experiment with SK-MEL-2 melanoma, in the experiment with RPMI-8226 leukemia and with RXF 393 renal was greater than 100 µM in each case. In addition, the TGI with HS 578T breast, in the experiment on 786-0 renal, with ACHN renal, in the experiment with SK-MEL-5 melanoma, with EKVX NSCLC and with HCC-2998 colon was greater than 100 µM throughout. Further, the TGI in the experiment on SK-MEL-2 melanoma, in the experiment on RPMI-8226 leukemia and with RXF 393 renal was greater than 100 µM throughout.
Turning to `COc1cc2c(c(OC)c1OC)C(=O)c1c-2n(CCCN=[N+]=[N-])c(=O)c2cc([N+](=O)[O-])ccc12`, the GI50 in the experiment with HS 578T breast is 25.3 µM; in the experiment on 786-0 renal, 41 µM; in the experiment with K-562 leukemia, greater than 100 µM; with SK-MEL-5 melanoma, greater than 100 µM; in the experiment on EKVX NSCLC, greater than 100 µM; in the experiment on HCC-2998 colon it was greater than 100 µM. Moreover, the GI50 is 22.8 µM in the experiment with SK-MEL-2 melanoma and 19.1 µM with RXF 393 renal. The TGI in the experiment on HS 578T breast, in the experiment with 786-0 renal, with K-562 leukemia, with SK-MEL-5 melanoma, in the experiment on EKVX NSCLC and in the experiment with HCC-2998 colon was greater than 100 µM in each case. For the same compound, the TGI is 70.7 µM in the experiment with SK-MEL-2 melanoma and 66.1 µM with RXF 393 renal.
On to `C[C@@H]1CC[C@@H]2[C@@H]1[C@H](OC(=O)c1ccc3ccccc3c1)[C@]1(C3CCCCC3)C[C@@H](OC(=O)CO)[C@@]2(C)O1`, for which the GI50 in the experiment with HS 578T breast was 0.023 µM; in the experiment on 786-0 renal, 5.41 µM; in the experiment with K-562 leukemia it was 11.4 µM; in the experiment with SK-MEL-5 melanoma, 14 µM; in the experiment on EKVX NSCLC, 11.4 µM; with HCC-2998 colon, 11.8 µM. The results for the GI50 in the experiment on SK-MEL-2 melanoma, in the experiment on RPMI-8226 leukemia and in the experiment on RXF 393 renal were 15.3 µM, 5.03 µM and 0.0702 µM, respectively. Further, the TGI worked out at 0.0757 µM in the experiment on HS 578T breast; 20 µM with 786-0 renal; 40.9 µM in the experiment with K-562 leukemia; 27.4 µM with SK-MEL-5 melanoma; 26.7 µM with EKVX NSCLC; 28.1 µM in the experiment on HCC-2998 colon. Also, the TGI with SK-MEL-2 melanoma turned out to be 30.8 µM; with RPMI-8226 leukemia, 22.8 µM; with RXF 393 renal, 8.25 µM.
Consider `Nc1cc(N)cc(Cc2ccccc2)c1`, for which the TGI with HS 578T breast, with 786-0 renal, with K-562 leukemia, in the experiment on ACHN renal, in the experiment on SK-MEL-5 melanoma and with EKVX NSCLC was greater than 100 µM throughout. For the same compound, the TGI with HCC-2998 colon, with SK-MEL-2 melanoma and in the experiment on RXF 393 renal was greater than 100 µM each time.
